In PubChem BioAssay (NCI):
“And” between values parts separate entries of the source, which are not always exact repeats. Identical values can stand only once.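 Where inhibition never reached the appropriate level, the endpoint shown equals the highest concentration tested. Otherwise, values were interpolated linearly from a five-concentration, 48-hour dose response in 96-well plates. GI50 is the concentration that inhibits growth by half. Definition used: TGI = concentration required for complete inhibition of growth.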

Experiments:
Assay in all cases: NCI tumour cell line growth inhibition, 48 h
SNB-78 CNS = tested on: SNB-78 CNS
HOP-18 NSCLC = tested on: HOP-18 NSCLC
M19-MEL melanoma = tested on: M19-MEL melanoma
LXFL 529 NSCLC = tested on: LXFL 529 NSCLC
XF 498 CNS = tested on: XF 498 CNS
DLD-1 colon = tested on: DLD-1 colon
DMS 114 small cell lung = tested on: DMS 114 small cell lung
RXF-631 renal = tested on: RXF-631 renal
P388 leukemia = tested on: P388 leukemia
SN12K1 renal = tested on: SN12K1 renal
MDA-N = tested on: MDA-N
P388/ADR leukemia = tested on: P388/ADR leukemia

Compound	TGI (SNB-78 CNS) [µM]	TGI (HOP-18 NSCLC) [µM]	TGI (M19-MEL melanoma) [µM]	TGI (LXFL 529 NSCLC) [µM]	TGI (XF 498 CNS) [µM]	GI50 (DLD-1 colon) [µM]	TGI (DLD-1 colon) [µM]	GI50 (HOP-18 NSCLC) [µM]	GI50 (LXFL 529 NSCLC) [µM]	TGI (DMS 114 small cell lung) [µM]	TGI (RXF-631 renal) [µM]	GI50 (M19-MEL melanoma)	TGI (P388 leukemia) [µM]	TGI (SN12K1 renal) [µM]	TGI (MDA-N) [µM]	TGI (P388/ADR leukemia) [µM]
O=C(O)C(CP(=O)(O)O)=C(Cl)Cl	> 100	> 100	> 100	> 100	> 100											
CC(=O)[CH-]C(=O)c1ccccc1.CC(=O)[CH-]C(=O)c1ccccc1.CC[O-].CC[O-].[Zr+4]		> 100		> 100		> 100	> 100	> 100	> 100							
COc1cc(/C=C2/C(=O)N(C(=O)OC(C)C)C(Cc3cc(OC)c(OC)c(C)c3OC)C(=O)N2Cc2ccccc2)c(OC)c(C)c1OC (stereo not given)		> 100	> 100	> 100			> 100			> 100						
Cc1c(Cl)ccc2c1NC(=O)C2(O)C(C(=O)c1ccccc1)c1ccccc1 (stereo not given)	> 100	> 100	30.6	> 100	96.9		> 100			44.2	> 100					
COc1ccc(C(=O)C(c2ccc(OC)cc2)C2(O)C(=O)Nc3ccccc32)cc1 (stereo not given)	> 100		> 100	> 100	> 100		> 100				> 100					
O=S1c2ccccc2N=C(c2ccc3ccccc3c2)CC1C1=CC=CCC1 (stereo not given)		> 100	31.2	29.7	31.6		26			33.3	37					
COc1cc(/C=C2\[C@H]3c4c(c(OC)c(C)c(OC)c4OC)C[C@@H](C(=O)N2Cc2ccccc2)N3C(=O)OCC(C)C)c(OC)c(C)c1OC		> 100	> 100	> 100	> 100		> 100									
Cc1cc(O)cc2oc(=O)c3c(O)cc(O)cc3c12	> 100	> 100	> 100	> 100	59.3		> 100			86.1						
COc1cc(C2=NN(C)C(c3ccc([N+](=O)[O-])o3)C2)cc(OC)c1OC (stereo not given)	> 100	> 100	> 100	> 100			> 100			> 100	> 100					
CN(C)CCNC(=O)c1cc2ccccc2c2nc3ccccc3nc12	16.4	> 22.9	2.67	> 22.3			3.59			2.43						
Cc1cc(NS(=O)(=O)c2ccc(N=Nc3cc(N=Nc4ccc(S(=O)(=O)Nc5cc(C)nc(C)n5)cc4)c4c(NC(=O)C(Cl)Cl)cccc4c3OC(=O)C(Cl)Cl)cc2)nc(C)n1 (tested in a mixture with another compound)	> 100	34.1	> 100				33.4			> 100						
COc1ccc2c(=O)c(C)c(-c3ccccc3)oc2c1CN(C)C	> 100	> 100	> 100	> 100	> 100		> 100			> 100		> 100 µM and 42.4 µM				
COC(=O)NC1C(C)OC(OC2C/C=C(/C)C3C=CC4C(OC5CC(OC6CC(O)C(OC7CC(O)C(OC)C(C)O7)C(C)O6)C(O)C(C)O5)C(C)CC(C)C4C3(C)/C(O)=C3\C(=O)OC4(CC(C)C(CO)=CC4/C=C\2C)C3=O)CC1(C)[N+](=O)[O-] (stereo not given)	29.8	31.4	13.1	9.19	27		40.4			11.5	41.7		17.4	22.6	19.5	98.1
CCOC(=O)C12CCCC1(O)N(NC(=O)c1ccccc1)C(C)=C2C(=O)OC (stereo not given)	> 100	> 100	> 100	> 100												
C/C(=C\C(C)COCc1ccccc1)[C@H](COCc1ccccc1)OCc1ccccc1 (stereo not given in full)	> 100		> 100	> 100	> 100					> 100	> 100					
Cc1ccc(NC(=O)C(=O)C2C(=O)N(c3ccccc3)N=C2N)cc1C (stereo not given)	> 100	> 100	> 100	> 100	> 100		> 100			> 100	> 100					
